Entries after “also recorded” stand apart in the source; their conditions may differ.
How the values were obtained:
mice = tested on: mice; parameters: method as in PMID 29852368; conditions: 200 mg kg^−1 dose; cited from earlier work
[1] = tested on: panel of human cell lines; experiment: Overall cytotoxicity screening across the cell line panel (growth percent); format: cell-based; conditions: 100 μM, 48 h, single-dose treatment, WST-1
Experimental: (§1) A thorough analysis of antiproliferative activity was performed across various cell culture types representing different histotypes: leukemia (Jurkat, MOLT-4), lung adenocarcinoma (A549), colorectal adenocarcinoma (HT-29), pancreatic carcinoma (PANC-1), breast adenocarcinoma (MCF-7), osteosarcoma (SAOS-2), and one non-cancerous cell line (fetal lung fibroblasts MRC-5). The cell lines were exposed to the newly synthesized compounds at a concentration of 100 μM for 48 h in a single-dose treatment. Changes in cell proliferation compared to the vehicle 0.1% dimethyl sulfoxide (DMSO) control were determined using the WST-1 assay, which is based on mitochondrial dehydrogenase metabolic activities. […] The overall cytotoxic activity of each compound was expressed as growth percent (GP) – the mean of the proliferation of all cell lines treated with the same compound.
Selected human tumor and non-tumor cell lines Jurkat (acute T-cell leukemia), MOLT-4 (acute lymphoblastic leukemia), A549 (lung carcinoma), HT-29 (colorectal adenocarcinoma), PANC-1 (pancreas epithelioid carcinoma), MCF-7 (breast adenocarcinoma), SAOS-2 (osteosarcoma) and MRC-5 (normal lung fibroblasts) were purchased from either American Type Culture Collection (ATCC; VA, USA) or Sigma-Aldrich (St. Louis, MO, USA) and cultured according to the provider's culture method guidelines. […]

[2] = WST-1 proliferation assay, HT-29; format: cell-based; conditions: human, HT-29 cells (colorectal adenocarcinoma), vs 0.1% DMSO control = 100%, mean ± standard deviation
Experimental: as §1
(§2) Selected human tumor and non-tumor cell lines Jurkat (acute T-cell leukemia), MOLT-4 (acute lymphoblastic leukemia), A549 (lung carcinoma), HT-29 (colorectal adenocarcinoma), PANC-1 (pancreas epithelioid carcinoma), MCF-7 (breast adenocarcinoma), SAOS-2 (osteosarcoma) and MRC-5 (normal lung fibroblasts) were purchased from either American Type Culture Collection (ATCC; VA, USA) or Sigma-Aldrich (St. Louis, MO, USA) and cultured according to the provider's culture method guidelines. All cell lines were maintained at 37 °C in a humidified 5% carbon dioxide and 95% air incubator. Cells in the maximum range of either 10 passages for the adherent cell lines (A549, HT-29, PANC-1, MCF-7, SAOS-2, and MRC-5), or 20 passages for suspension cell lines (Jurkat, MOLT-4,) and in an exponential growth phase were used for this study. Screening of the antiproliferative effect and growth percent calculation were conducted as follows: each cell line was seeded at previously established optimal density (1–50 × 10^3 cells per well) in a 96-well plate (TPP, Trasadingen, Switzerland) and cells were allowed to settle overnight. Cells were treated for 48 h with compounds at a final concentration of 100 μM. At the end of the cultivation period, the WST-1 proliferation assay (Roche, Basel, Switzerland) was performed according to the manufacturer's protocol. The absorbance was measured at 440 nm using a Tecan Spark multimode microplate reader (Tecan, Mannedorf, Switzerland). Each value is the mean of three independent experiments and represents the percentage of proliferation (100% cell proliferation for 0.1% DMSO mock-treated control cells). The GP value was calculated for each compound tested. GP represents the mean of the percentage proliferation decrease of all cell lines treated with the same compound.

[3] = WST-1 proliferation assay, A549; format: cell-based; conditions: human, A549 cells (lung carcinoma), vs 0.1% DMSO control = 100%, mean ± standard deviation
Experimental: as §1, §2

[4] = WST-1 proliferation assay, Jurkat; format: cell-based; conditions: human, Jurkat cells (acute T-cell leukemia), vs 0.1% DMSO control = 100%, mean ± standard deviation
Experimental: as §1, §2

[5] = WST-1 proliferation assay, MOLT-4; format: cell-based; conditions: human, MOLT-4 cells (acute lymphoblastic leukemia), vs 0.1% DMSO control = 100%, mean ± standard deviation
Experimental: as §1, §2

[6] = WST-1 proliferation assay, MCF-7; format: cell-based; conditions: human, MCF-7 cells (breast adenocarcinoma), vs 0.1% DMSO control = 100%, mean ± standard deviation
Experimental: as §1, §2

[7] = WST-1 proliferation assay, SAOS-2; format: cell-based; conditions: human, SAOS-2 cells (osteosarcoma), vs 0.1% DMSO control = 100%, mean ± standard deviation
Experimental: as §1, §2

[8] = WST-1 proliferation assay, MRC-5; format: cell-based; conditions: human, MRC-5 cells (normal lung fibroblasts), vs 0.1% DMSO control = 100%, mean ± standard deviation
Experimental: as §1, §2

[9] = WST-1 proliferation assay, PANC-1; format: cell-based; conditions: human, PANC-1 cells (pancreas epithelioid carcinoma), vs 0.1% DMSO control = 100%, mean ± standard deviation
Experimental: as §1, §2

Question: With `O=C1N=C(N2CCN(CCO)CC2)S/C1=C\c1ccc(-c2ccccc2)cc1` [CLZ-8] as the compound, how does the “Survival of mice (in words)” value (mice) read?
Answer: The value was “significantly improved their survival”.

Question: Which “Overall cytotoxic activity across cell lines (in words)” value [1] does the source give for `OCCN1CCN(CC(O)COc2cc(Cl)c(Cl)cc2Cl)CC1` (stereo not shown) [Compound 8, 1-(4-(2-Hydroxyethyl)piperazin-1-yl)-3-(2,4,5-trichlorophenoxy)propan-2-ol] here?
Answer: The value was “severe toxicity to most of the tested cell lines; also recorded: exhibited stand-alone cytotoxicity”.

Question: What about the viability at 48 h, 100 µM [2] of the same compound?
Answer: The viability at 48 h, 100 µM was 33 ± 3%.

Question: And the viability at 48 h, 100 µM [3]?
Answer: The viability at 48 h, 100 µM was 92 ± 12%.

Question: And the viability at 48 h, 100 µM [4]?
Answer: Its viability at 48 h, 100 µM is 28 ± 4%.

Question: What about the viability at 48 h, 100 µM [5] of the same compound?
Answer: The viability at 48 h, 100 µM was 41 ± 8%.

Question: And the viability at 48 h, 100 µM [6]?
Answer: The viability at 48 h, 100 µM was 41 ± 7%.

Question: What about the viability at 48 h, 100 µM [7] of the same compound?
Answer: The viability at 48 h, 100 µM was 42 ± 5%.

Question: And the viability at 48 h, 100 µM [8]?
Answer: Its viability at 48 h, 100 µM is 15 ± 10%.

Question: And the viability at 48 h, 100 µM [9]?
Answer: The viability at 48 h, 100 µM was 101 ± 2%.

Question: Which results are given for `OCCN1CCN(CC(O)COc2ccc(Oc3ccc(F)cc3)cc2)CC1` (stereo not shown) [Compound 7, 1-(4-(2-Hydroxyethyl)piperazin-1-yl)-3-(4-(4-fluorophenoxy)phenoxy)propan-2-ol]?
Answer: Overall cytotoxic activity across cell lines (in words) [1]: severe toxicity to most of the tested cell lines; also recorded: exhibited stand-alone cytotoxicity; viability at 48 h, 100 µM [2]: 12 ± 2%; viability at 48 h, 100 µM [3]: 6 ± 2%; viability at 48 h, 100 µM [4]: 2%; viability at 48 h, 100 µM [5]: 6 ± 5%; viability at 48 h, 100 µM [6]: 7 ± 7%; viability at 48 h, 100 µM [7]: 15 ± 5%; viability at 48 h, 100 µM [8]: 0%; viability at 48 h, 100 µM [9]: 55 ± 6%
